We go through 9 compounds from BindingDB's records for doi:10.1021/ml500507v (University of Cambridge, 2015).

The structures appear in SMILES notation.

The target of experiment [1] is T1, 5-hydroxytryptamine receptor 2C (Homo sapiens, UniProt P28335).
T1 sequence (P28335 whole entry): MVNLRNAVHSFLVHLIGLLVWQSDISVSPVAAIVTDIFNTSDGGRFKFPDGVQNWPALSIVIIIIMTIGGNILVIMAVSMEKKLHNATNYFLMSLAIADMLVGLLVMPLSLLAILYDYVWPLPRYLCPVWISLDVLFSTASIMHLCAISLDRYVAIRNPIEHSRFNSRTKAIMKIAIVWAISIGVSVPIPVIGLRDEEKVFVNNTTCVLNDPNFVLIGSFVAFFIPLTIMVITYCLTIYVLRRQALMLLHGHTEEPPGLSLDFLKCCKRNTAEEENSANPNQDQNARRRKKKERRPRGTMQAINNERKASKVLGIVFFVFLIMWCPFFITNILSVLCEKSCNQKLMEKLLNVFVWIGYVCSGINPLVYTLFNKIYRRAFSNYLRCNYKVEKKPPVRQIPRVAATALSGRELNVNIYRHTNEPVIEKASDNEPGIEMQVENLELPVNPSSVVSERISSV
The experiment in a line: Inhibition of Cy3B conjugated serotonin analogue binding to human recombinant 5-HT2C receptor expressed in Swiss mouse 3T3 cell membranes after 60 mins by fluorescence polarization assay.

For experiment [2], the target named is T1, 5-hydroxytryptamine receptor 2C. As to the kind of experiment: Agonist activity at human recombinant 5-HT2C receptor expressed in Swiss mouse 3T3 cell membranes after 30 to 40 mins by GTPgammaS recruitment assay.

As for `c1ccc(CNc2nc(Cc3ccccc3)cc3c2CCNCC3)cc1`, in experiment [1], the Ki was found to be 22 nM. In addition, the EC50 in experiment [2] came to 158 nM.

Take `c1ccc(Cc2cc3c(c(NCC4CC4)n2)CCNCC3)cc1`: the Ki in experiment [1] was determined as 0.5 nM.

Consider `CC(C)CNc1nc(Cc2ccccc2)cc2c1CCNCC2`, for which the Ki in experiment [1] turned out to be 12 nM. Further, the EC50 in experiment [2] is 36 nM.

Take `CCNc1nc(Cc2ccccc2)cc2c1CCNCC2`: in experiment [1], the Ki was found to be 3 nM. The EC50 in experiment [2] was determined as 11 nM.

As for `CNc1nc(Cc2ccccc2)cc2c1CCNCC2`, in experiment [1], the Ki amounted to 3 nM. The EC50 in experiment [2] came to 9 nM.

With `CCCNc1nc(Cc2ccccc2)cc2c1CCNCC2`, the Ki in experiment [1] came to 4 nM.

As for `CC(C)Nc1nc(Cc2ccccc2)cc2c1CCNCC2`, the Ki in experiment [1] is 13 nM.

Turning to `CN(C)c1nc(Cc2ccccc2)cc2c1CCNCC2`, the Ki in experiment [1] came out at 12 nM.

With `c1ccc(Cc2cc3c(cn2)CCNCC3)cc1`, the Ki in experiment [1] was found to be 35 nM.

What is called Ki is a dissociation constant, usually derived from enzyme kinetics or from competition with a known ligand. As a reminder, the EC50 is the concentration needed to bring the measured effect to its halfway point.
